Data published in PMC7377239, “Cardiovascular Effects of Polychlorinated Biphenyls and Their Major Metabolites” (Environmental Health Perspectives, 2020).
Counter-ions that a name gives are not always drawn. Like-named read-outs stand apart in the source and are kept apart here.

Key:
HUVECs = assay: Tube formation (tubulogenesis) assay in HUVECs, 18 h; format: cell-based, human; details: Homo sapiens, HUVEC, 18 h, HUVECs; for activity at 0.1 µM: 0.10 µM; for minimal effective concentration: top concentration 100.00 µM
Outline: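 HUVECs (passage 1–5) seeded on reduced-growth-factor basement membrane and exposed to compounds overnight at 37°C, 5% CO2, in 2× maintenance medium with 12.5 ng/mL VEGF; 0.5% DMSO vehicle. Calcein AM-stained tube networks imaged and analysed; vehicle-normalized readouts fit to four-parameter logistic, POD set at one SD of vehicle means.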

[1] = system: iCell endothelial cells (human iPSC-derived ECs); assay: Tube formation (tubulogenesis) assay in iCell endothelial cells, 18 h; format: cell-based; details: Homo sapiens, Endothelial cell, iPSC-EC tube formation, 18 hr; for activity at 0.1 µM: 0.10 µM; for minimal effective concentration: top concentration 100.00 µM
Outline: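 Tube formation was measured by calcein AM imaging after overnight compound exposure (37°C, 0.5% DMSO vehicle) of human iPSC-derived ECs, 7,500/well, on reduced-growth-factor Geltrex in starvation medium. Vehicle-normalized data fitted to four-parameter logistic; POD set at one vehicle SD; without response, 100 μM taken as NOAEL.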

[2] = 0.00 µM = 100.00, read-out: huvec.mtl.18hr
[3] = 0.00 µM = 100.00, read-out: huvec.tlps.18hr
[4] = 0.00 µM = 100.00, read-out: huvec.tta.18hr
[5] = 0.00 µM = 100.00, read-out: huvec.ttl.18hr
[6] = 0.00 µM control = 100.00, read-out: endo.mtl.18hr
[7] = 0.00 µM control = 100.00, read-out: endo.tlps.18hr
[8] = 0.00 µM control = 100.00, read-out: endo.tta.18hr
[9] = 0.00 µM control = 100.00, read-out: endo.ttl.18hr

## O=S(=O)(O)Oc1cc(-c2ccccc2)ccc1Cl [3-yl PCB 3 sulfate]
HUVECs; [2]
  activity at 0.01 µM: 95%
  activity at 0.1 µM: 100%
  activity at 1 µM: 94.1%
  activity at 10 µM: 91.9%
  activity at 100 µM: 62.3%
HUVECs; [3]
  activity at 0.01 µM: 89.1%
  activity at 0.1 µM: 109%
  activity at 1 µM: 116%
  activity at 10 µM: 112%
  activity at 100 µM: 58.1%
HUVECs; [4]
  activity at 0.01 µM: 78%
  activity at 0.1 µM: 141%
  activity at 1 µM: 124%
  activity at 10 µM: 114%
  activity at 100 µM: 63.7%
HUVECs; [5]
  activity at 0.01 µM: 73.3%
  activity at 0.1 µM: 137%
  activity at 1 µM: 123%
  activity at 10 µM: 110%
  activity at 100 µM: 61.1%
HUVECs; read-out: huvec.mtl.18hr POD
  minimal effective concentration: 11.5 µM
HUVECs; read-out: huvec.tlps.18hr POD
  minimal effective concentration: 65.8 µM
HUVECs; read-out: huvec.tta.18hr POD
  minimal effective concentration: 100 µM
HUVECs; read-out: huvec.ttl.18hr POD
  minimal effective concentration: 52.1 µM
[1]; [6]
  activity at 0.01 µM: 102%
  activity at 0.1 µM: 88.6%
  activity at 1 µM: 92.1%
  activity at 10 µM: 75.1%
  activity at 100 µM: 83.7%
[1]; [7]
  activity at 0.01 µM: 104%
  activity at 0.1 µM: 127%
  activity at 1 µM: 89.4%
  activity at 10 µM: 68.7%
  activity at 100 µM: 46.7%
[1]; [8]
  activity at 0.01 µM: 152%
  activity at 0.1 µM: 93.5%
  activity at 1 µM: 106%
  activity at 10 µM: 61.4%
  activity at 100 µM: 78.8%
[1]; [9]
  activity at 0.01 µM: 139%
  activity at 0.1 µM: 88.4%
  activity at 1 µM: 101%
  activity at 10 µM: 59.2%
  activity at 100 µM: 79%
[1]; read-out: endo.mtl.18hr POD
  minimal effective concentration: 100 µM
[1]; read-out: endo.tlps.18hr POD
  minimal effective concentration: 6.75 µM
[1]; read-out: endo.tta.18hr POD
  minimal effective concentration: 100 µM
[1]; read-out: endo.ttl.18hr POD
  minimal effective concentration: 100 µM
